# Laboratory results taken from patent US20120129811A1, “TRICYCLIC INHIBITORS OF PRO-MATRIX METALLOPROTEINASE ACTIVATION” (priority 2010, published 2012).
# Counter-ions that a name gives are not always drawn.
# Legend:
# [1] = target: T1, proMMP9(67-444;ΔFnII) (SEQ ID NO:5) (Homo sapiens, UniProt P14780, DEL216-390); assay: ThermoFluor binding assay with proMMP9(67-444;ΔFnII)
# T1 construct: start methionine (N); made in house; host or cells: E. coli BL21(DE3) RIL
# T1 sequence (P14780 with tags, fused parts or gaps DEL216-390): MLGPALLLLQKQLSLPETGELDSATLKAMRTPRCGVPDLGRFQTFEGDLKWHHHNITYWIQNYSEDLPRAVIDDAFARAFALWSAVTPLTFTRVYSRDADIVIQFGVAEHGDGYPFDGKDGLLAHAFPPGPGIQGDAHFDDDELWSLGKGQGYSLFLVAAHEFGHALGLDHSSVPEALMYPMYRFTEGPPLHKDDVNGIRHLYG
# Protocol: (§1) The ThermoFluor® (TF) assay is a 384-well plate-based binding assay that measures thermal stability of proteins (Biomol Screen 2001, 6, 429-40; Biochemistry 2005, 44, 5258-66). The experiments were carried out using instruments available from Johnson & Johnson Pharmaceutical Research & Development, LLC. TF dye used in all experiments was […] (1,8-ANS) (Invitrogen: A-47).
# (§2) Compounds were arranged in a pre-dispensed plate (Greiner Bio-one: 781280), wherein compounds were serially diluted in 100% DMSO across 11 columns within a series. Columns 12 and 24 were used as DMSO reference and contained no compound. For multiple compound concentration-response experiments, the compound aliquots (50 nL) were robotically predispensed directly into black 384-well polypropylene PCR microplates (Abgene: TF-0384/k) using a Cartesian Hummingbird liquid handler (DigiLab, Holliston, Mass.). Following compound dispense, protein and dye solutions were added to achieve the final assay volume of 3 μL. The assay solutions were overlayed with 1 μL of silicone oil (Fluka, type DC 200: 85411) to prevent evaporation.
# (§3) Assay plates were robotically loaded onto a thermostatically controlled PCR-type thermal block and then heated from 40 to 90° C. at a ramp-rate of 1° C./min for all experiments. Fluorescence was measured by continuous illumination with UV light (Hamamatsu LC6) supplied via fiber optics and filtered through a band-pass filter (380-400 nm; >60D cutoff). Fluorescence emission of the entire 384-well plate was detected by measuring light intensity using a CCD camera (Sensys, Roper Scientific) filtered to detect 500±25 nm, resulting in simultaneous and independent readings of all 384 wells. A single image with 20-sec exposure time was collected at each temperature, and the sum of the pixel intensity in a given area of the assay plate was recorded vs temperature and fit to standard equations to yield the Tm (J Biomol Screen 2001, 6, 429-40).
# (§4) Thermodynamic parameters necessary for fitting compound binding for each proMMP were estimated by differential scanning calorimetry (DSC) and from ThermoFluor® data. The heat capacity of unfolding for each protein was estimated from the molecular weight and from ThermoFluor® dosing data.
# ThermoFluor® with proMMP9(67-444;ΔFnM (SEQ ID NO:5)
# The protein sample preparations had to include a desalting buffer exchange step via a PD-10 gravity column (GE Healthcare). The desalting buffer exchange was performed prior to diluting the protein to the final assay concentration of 3.5 μM proMMP9(67-444;ΔFnII) (SEQ ID NO:5). The concentration of proMMP9(67-444;ΔFnII) (SEQ ID NO:5) was determined spectrophotometrically based on a calculated extinction coefficient of ε280=33900 M^−1 cm^−1, a calculated molecular weight of 22.6 kDa, and calculated pI of 5.20. ThermoFluor® reference conditions were defined as follows: 80 μg/mL (3.5 μM) proMMP9(67-444;ΔFnII) (SEQ ID NO:5), 50 μM 1,8-ANS, pH 7.0 Buffer (50 mM HEPES pH 7.0, 100 mM NaCl, 0.001% Tween-20, 2.5 mM MgCl2, 300 μM CaCl2). The thermodynamic parameters for proMMP9(67-444;ΔFnII) (SEQ ID NO:5) are as follows: Tm (° C.)=63 (+/−0.1), ΔUH(Tm)(cal mol^−1)=105000(+/−5000), ΔUS(Tm) (cal mol^−1 K^−1)=450, ΔUCp (cal mol^−1 K^−1)=2000.
# [2] = target: T2, proMMP9(20-445;ΔFnII) (SEQ ID NO:6) (Homo sapiens, UniProt P14780, DEL216-390); assay: ThermoFluor binding assay with proMMP9(20-445;ΔFnII)
# T2 construct: start methionine (N); made in house; host or cells: E. coli BL21(DE3) RIL
# T2 sequence (P14780 with tags, fused parts or gaps DEL216-390): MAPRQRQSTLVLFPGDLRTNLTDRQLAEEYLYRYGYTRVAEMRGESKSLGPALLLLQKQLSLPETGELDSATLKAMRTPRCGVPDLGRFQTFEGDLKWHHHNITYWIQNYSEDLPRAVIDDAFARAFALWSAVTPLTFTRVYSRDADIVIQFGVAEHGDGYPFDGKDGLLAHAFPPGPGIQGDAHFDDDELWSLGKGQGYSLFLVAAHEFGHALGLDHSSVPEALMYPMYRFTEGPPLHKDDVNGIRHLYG
# Protocol: as §1, §2, §3, §4
# ThermoFluor® with proMMP9(20-445; ΔFnII (SEQ ID NO:6)
# The protein sample preparations included a desalting buffer exchange step via a PD-10 gravity column (GE Healthcare). The desalting buffer exchange was performed prior to diluting the protein to the final assay concentration of 2.8 μM proMMP9(20-445;ΔFnII) (SEQ ID NO:6). The concentration of proMMP9(20-445;ΔFnII) (SEQ ID NO:6) was determined spectrophotometrically based on a calculated extinction coefficient of ε280=39880 M^−1 cm^−1, a calculated molecular weight of 28.2 kDa, and calculated pI of 5.5. ThermoFluor® reference conditions were define as follows: 80 μg/mL (2.8 μM) proMMP9(20-445;ΔFnII) (SEQ ID NO:6), 50 μM 1,8-ANS, pH 7.0 Buffer (50 mM HEPES pH 7.0, 100 mM NaCl, 0.001% Tween-20, 2.5 mM MgCl2, 300 μM CaCl2). The thermodynamic parameters for proMMP9(20-445;ΔFnII) (SEQ ID NO:6) are as follows: Tm (° C.)=72 (+/−0.1), ΔUH(Tm) (cal mol^−1)=160000(+/−5000), ΔUSTm (cal mol^−1 K^−1)=434, ΔUCp (cal mol^−1 K^−1)=2400.
# [3] = target: T3, full-length proMMP9(1-707) activation by catalytic MMP3 (Homo sapiens, UniProt P14780, R574P); assay: proMMP9/MMP3 P126 Activation Assay; assay type: biochemical
# T3 construct: made in house; host or cells: proMMP9: HEK293 (secreted); MMP3: E. coli
# Protocol: proMMP9/MMP3 P126 Activation Assay
# The reaction volume was 50 μL. […] Reactivity of residual MMP3 towards P-126 substrate was minimal under these conditions.
# T3 sequence (P14780 20-707 R574P): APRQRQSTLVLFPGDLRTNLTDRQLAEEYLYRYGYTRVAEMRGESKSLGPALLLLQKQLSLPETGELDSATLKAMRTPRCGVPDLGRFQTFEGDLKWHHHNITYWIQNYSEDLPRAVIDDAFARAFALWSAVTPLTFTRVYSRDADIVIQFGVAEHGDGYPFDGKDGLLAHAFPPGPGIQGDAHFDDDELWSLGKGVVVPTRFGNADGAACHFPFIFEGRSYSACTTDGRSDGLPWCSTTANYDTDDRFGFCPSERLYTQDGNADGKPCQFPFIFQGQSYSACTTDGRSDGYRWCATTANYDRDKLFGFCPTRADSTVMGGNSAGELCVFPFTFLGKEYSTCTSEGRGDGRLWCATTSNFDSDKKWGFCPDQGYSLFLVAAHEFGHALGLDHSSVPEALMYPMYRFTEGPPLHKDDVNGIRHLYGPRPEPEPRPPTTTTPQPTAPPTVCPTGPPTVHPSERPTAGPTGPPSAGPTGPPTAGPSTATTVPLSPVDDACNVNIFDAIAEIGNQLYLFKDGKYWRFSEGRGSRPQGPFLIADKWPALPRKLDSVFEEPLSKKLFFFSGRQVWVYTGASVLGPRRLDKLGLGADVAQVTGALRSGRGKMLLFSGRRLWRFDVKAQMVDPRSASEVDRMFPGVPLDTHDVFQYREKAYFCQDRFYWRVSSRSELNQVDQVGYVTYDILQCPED
SMILES,Kd [1],Kd [2],IC50 [3]
"CCOc1ccccc1Nc1nc2c(ccc3sc(N)nc32)s1 [Example 3, N^7-(2-Ethoxy-phenyl)-benzo[2,1-d;3,4-d′]bisthiazole-2,7-diamine.TFA]",1600 nM,3200 nM,1400 nM
"Cc1nc2ccc3sc(Nc4ccccc4OC(C)C)nc3c2s1 [Example 17, (2-Isopropoxy-phenyl)-(2-methyl-benzo[1,2-d;3,4-d′]-bisthiazol-7-yl)-amine.HCl]",> 95000 nM,> 95000 nM,5800 nM
"Cc1[nH]c2c(ccc3sc(Nc4cc(C(N)=O)ccc4OC(C)C)nc32)c1C [Example 45, 3-(6,7-Dimethyl-8H-3-thia-1,8-diaza-as-indacen-2-ylamino)-4-isopropoxy-benzamide.HCl]",3300 nM,780 nM,3900 nM
"COc1c(F)cc(C(N)=O)cc1Nc1nc2c(ccc3c2ncn3C)s1 [Example 48, 3-Fluoro-4-methoxy-5-(6-methyl-6H-imidazo[4′,5′:3,4]benzo[2,1-d]thiazol-2-ylamino)-benzamide.HCl]",810 nM,1900 nM,360 nM
"COc1ccc(NC(C)=O)cc1Nc1nc2c(ccc3c2ncn3C)s1 [Example 49, N-[4-Methoxy-3-(6-methyl-6H-imidazo[4′,5′:3,4]benzo[2,1-d]thiazol-2-ylamino)-phenyl]-acetamide.HCl]",1600 nM,4600 nM,1300 nM
"COc1cc([N+](=O)[O-])ccc1Nc1nc2c(ccc3c2ncn3C)s1 [Example 83, (2-Methoxy-4-nitro-phenyl)-(6-methyl-6H-imidazo[4′,5′:3,4]benzo[2,1-d]thiazol-2-yl)-amine.HCl]",,,~100 nM
"COc1ccc(C#N)cc1Nc1nc2c(ccc3ocnc32)s1 [Example 84, 4-Methoxy-3-(thiazolo[4′,5′:3,4]-benzo[2,1-d]oxazol-7-ylamino)-benzonitrile]",,,750 nM
"COc1ccc(S(N)(=O)=O)cc1Nc1nc2c(ccc3cnccc32)s1 [Example 104, 4-Methoxy-3-(thiazolo[4,5-f]isoquinolin-2-ylamino)-benzenesulfonamide.TFA]",6100 nM,7700 nM,
"COc1ccc(C#N)cc1Nc1nc2c(ccc3cnccc32)s1 [Example 151, 4-Methoxy-3-(thiazolo[4,5-f]isoquinolin-2-ylamino)-benzonitrile.TFA]",,> 95000 nM,> 20000 nM
"CCn1c(C)nc2ccc3sc(Nc4cnccc4OC)nc3c21 [Example 152, 8-Ethyl-N-(4-methoxypyridin-3-yl)-7-methyl-8H-imidazo[4′,5′:5,6]benzo[1,2-d]thiazol-2-amine]",,,550 nM
"CC(C)Oc1ccc(S(N)(=O)=O)cc1Nc1nc2c(ccc3c2ccn3C)s1 [Example 161, 4-isopropoxy-3-((6-methyl-6H-thiazolo[4,5-e]indol-2-yl)amino)benzenesulfonamide.HCl]",,480 nM,340 nM
"COc1ccc(S(C)(=O)=O)cc1Nc1nc2c(ccc3c2ccn3C)s1 [Example 163, N-(2-methoxy-5-(methylsulfonyl)phenyl)-6-methyl-6H-thiazolo[4,5-e]indol-2-amine.HCl]",,420 nM,110 nM

# Further molecules by falling IC50 [3], results first:
Kd [1],Kd [2],IC50 [3],SMILES
30000 nM,67000 nM,4700 nM,"CCOc1ccccc1Nc1nc2c(ccc3sc(Nc4ccccc4OCC)nc32)s1 [Example 4, N,N′-Bis-(2-ethoxy-phenyl)-benzo[2,1-d;3,4-d′]bisthiazole-2,7-diamine.TFA]"
6200 nM,4000 nM,4200 nM,"COc1c(Nc2nc3c(ccc4c3ncn4C)s2)cc(C(N)=O)cc1C(F)(F)F [Example 53, 4-Methoxy-3-(6-methyl-6H-imidazo[4′,5′:3,4]benzo[2,1-d]thiazol-2-ylamino)-5-trifluoromethyl-benzamide.HCl]"
,,3900 nM,"CC(C)Cc1ccc(C(N)=O)cc1Nc1nc2c(ccc3c2ncn3C)s1 [Example 88, 4-Isobutyl-3-(6-methyl-6H-imidazo[4′,5′:3,4]-benzo[2,1-d]thiazol-2-ylamino)-benzamide]"
200 nM,2300 nM,1700 nM,"COc1ccc(Cl)cc1Nc1nc2c(ccc3nc(N)sc32)s1 [Example 7, N^7-(5-Chloro-2-methoxy-phenyl)-benzo[1,2-d;3,4-d′]-bisthiazole-2,7-diamine.TFA]"
,76000 nM,1700 nM,"COc1ccccc1Nc1nc2c(ccc3cnccc32)s1 [Example 100, (2-Methoxy-phenyl)-thiazolo[4,5-f]isoquinolin-2-yl-amine.TFA]"
1500 nM,3000 nM,1100 nM,"COc1ccc(C(F)(F)F)cc1Nc1nc2c(ccc3c2ncn3C)s1 [Example 50, (2-Methoxy-5-trifluoromethyl-phenyl)-(6-methyl-6H-imidazo[4′,5′: 3,4]benzo[2,1-d]thiazol-2-yl)-amine.HCl]"
,430 nM,640 nM,"Cn1ccc2c3nc(Nc4cc(S(N)(=O)=O)ccc4OC(F)(F)F)sc3ccc21 [Example 162, 3-((6-methyl-6H-thiazolo[4,5-e]indol-2-yl)amino)-4-(trifluoromethoxy)benzenesulfonamide.HCl]"
1600 nM,1000 nM,600 nM,"CC(C)Oc1ccc(C(N)=O)cc1Nc1nc2c(ccc3[nH]nnc32)s1 [Example 47, 4-Isopropoxy-3-(3H-thiazolo[4′,5′:3,4]benzo[1,2-d][1,2,3]triazol-7-ylamino)-benzamide.HCl]"
240 nM,640 nM,150 nM,"COc1ccccc1Nc1nc2c(ccc3c2ncn3C)s1 [Example 46, (2-Methoxy-phenyl)-(6-methyl-6H-imidazo[4′,5′:3,4]benzo[2,1-d]thiazol-2-yl)-amine.HCl]"
